Test results reported in patent US20050027003A1, “Methods of therapeutic treatment using retinoids with reduced side effects” (Allergan, Inc., priority 2003, published 2005).
Where two headings read alike, the source gives them in different places.

Tests used:
RARs = test: Activation of and selectivity among the retinoic acid receptors; type: cell-based; settings: relative to all-trans-retinoic acid, the natural ligand
Source text: (§1) The selection of a retinoid component useful in accordance with the present invention can be accomplished using straightforward, conventional testing and/or assays, such as the transactivation assays set forth in Evans et al., U.S. Pat. Nos., 5,217,867; 5,262,300; 5,310,662; and 5,906,920, each of which is hereby incorporated in its entirety herein by reference, which are well known in the art. Such testing and/or assays can identify suitable useful retinoid components without undue experimentation.
(§2) Other well known and straightforward test methods and/or assays may be employed to determine the selectivity or specificity of an RAR active compound to RAR-alpha, RAR-beta and RAR-gamma. For example, using conventional and well known assays, for example, such as set forth in Klein et al. U.S. Pat. No. 5,776,699, the disclosure of which is incorporated in its entirety herein by reference, and/or the above-noted Evans et al. patents, the selectively or specificity of a compound to RAR-alpha, RAR-beta and RAR-gamma can be determined. Based on the results of such assays, one can determine whether or not a compound is useful in accordance with one or more aspects of the present invention.

RAR-α = molecular target: T1, RAR-α (Homo sapiens, UniProt P10276); test: RAR-α activity; type: cell-based
T1 sequence (P10276 1-462): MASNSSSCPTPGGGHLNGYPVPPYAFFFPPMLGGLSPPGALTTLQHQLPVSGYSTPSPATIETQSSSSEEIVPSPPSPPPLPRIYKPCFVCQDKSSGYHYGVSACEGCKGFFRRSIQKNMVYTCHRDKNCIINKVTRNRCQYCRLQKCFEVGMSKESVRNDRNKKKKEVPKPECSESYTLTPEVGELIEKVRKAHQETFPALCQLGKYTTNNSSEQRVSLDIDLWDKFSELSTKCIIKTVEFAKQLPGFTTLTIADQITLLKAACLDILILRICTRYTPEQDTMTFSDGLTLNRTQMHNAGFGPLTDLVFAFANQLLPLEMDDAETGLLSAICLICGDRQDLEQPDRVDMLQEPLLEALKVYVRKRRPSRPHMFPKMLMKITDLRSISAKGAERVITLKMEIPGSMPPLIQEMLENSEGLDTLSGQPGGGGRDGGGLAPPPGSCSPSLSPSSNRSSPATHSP
Source text: as §1, §2

[1] = Example 1: 6.3 mg oral tazarotene with high-fat meal vs 8-10 hour fast, pharmacokinetics; type: in vivo, human
Protocol: (§3) The LC-MS/MS test for simultaneous detection of tazarotene and tazarotenic acid may be run as follows. One ml of plasma (EDTA-treated) is diluted with 1.0 ml of water. Diluted plasma is extracted using solid phase extraction (SPE) on a C18 cartridge. The eluate is evaporated, reconstituted in a water/methanol-based mobile phase, and injected onto a 4.6×50 mm, 3 μm pore size C-8 reverse phase high pressure liquid chromatography (HPLC) column (Agilent, Wilmington, Del.). Compounds are gradient-eluted at 1.2 mL/min and detected using an API 3000 triple quadrupole mass spectrometer with an Atmospheric Pressure Chemical Ionization (APCI) source (PE-Sciex, Concord, Ontario, Canada). Molecular reaction monitoring enhances the sensitivity and selectivity of this assay by collisionally dissociating the protonated molecules for the analyte and an internal standard thereby forming the product ions. The specific precursor-product ion pair monitored are m/z 352→324 for tazarotene, m/z 359→331 for the tazarotene internal standard, m/z 324→294 for tazarotenic acid, and m/z 331+298 for the tazarotenic acid internal standard. The lower limit of quantitation at assay range tested is 0.1 ng/mL, with a coefficient of variation and deviation from nominal concentration of <15%.

[2] = Example 7: effect of body weight on plasma tazarotenic acid Cmax and AUC; type: in vivo, human; settings: 6 mg tazarotene daily
Protocol: as §3, with “<15%. […]” for “<15%.”

[3] = in vivo; cited from earlier work
[4] = in vivo; cited from earlier work; remark: listed apart in the source
patients [5] = settings: published data (N = 525); cited from earlier work
[6] = oral; cited from earlier work
patients [7] = settings: published data (N = 525); cited from earlier work; remark: listed apart in the source

CC1(C)CCSc2ccc(C#Cc3ccc(C(=O)O)cn3)cc21 [tazarotenic acid]
receptor specificity and selectivity (RARs): specificity for the RARs and selectivity for RAR-β and RAR-γ | RAR-α activity (RAR-α): minimal | average ratio of Cmax (test/reference) ([1]; Day 0, high-fat meal vs fasted): 1.00 | effect of high-fat meal on bioavailability or pharmacokinetics ([1]; single and multiple dose): does not substantially affect | correlation of AUC with body weight ([2]; day 0): may be a correlation | correlation between either Cmax or AUC and body weight ([2]; day 9): no correlation

COc1cc(C)c(/C=C/C(C)=C/C=C/C(C)=C/C(=O)O)c(C)c1C [acitretin]
bioavailability vs body weight [3]: increased with a reduced body weight | interaction with coadministered contraceptives [4]: interferes with the contraceptive effect | Adverse event: Alopecia (patients [5]): 319 (60.8) number (%) of patients | Adverse event: Arthralgia (patients [5]): 102 (19.4) number (%) of patients | Adverse event: Atrophy of skin (patients [5]): 64 (12.2) number (%) of patients | Adverse event: Back pain (patients [5]): 41 (7.8) number (%) of patients | Adverse event: Cheilitis (patients [5]): 429 (81.7) number (%) of patients | Adverse event: Dry Skin (patients [5]): 174 (33.1) number (%) of patients | Adverse event: Dry mouth/Oral dryness (patients [5]): 76 (14.5) number (%) of patients | Adverse event: Epistaxis (patients [5]): 61 (11.6) number (%) of patients | Adverse event: Erythematous rash/Erythema (patients [5]): 57 (10.9) number (%) of patients | Adverse event: Hyperesthesia (patients [5]): 66 (12.6) number (%) of patients | Adverse event: Nail Disorder (patients [5]): 170 (32.4) number (%) of patients | Adverse event: Paresthesia (patients [5]): 56 (10.7) number (%) of patients | Adverse event: Paronychia/Nail disorder (patients [5]): 66 (12.6) number (%) of patients | Adverse event: Pruritus (patients [5]): 157 (29.9) number (%) of patients | Adverse event: Rhinitis (patients [5]): 153 (29.1) number (%) of patients | Adverse event: Rigors/Chills (patients [5]): 67 (12.8) number (%) of patients | Adverse event: Skin peeling/Desquamation (patients [5]): 345 (65.7) number (%) of patients | Adverse event: Sticky skin/Skin disorder (patients [5]): 129 (24.6) number (%) of patients | Adverse event: Xerophthalmia/Eye disorder (patients [5]): 112 (21.3) number (%) of patients

CC1=C(/C=C/C(C)=C/C=C/C(C)=C\C(=O)O)C(C)(C)CCC1 [isotretinoin]
total dose to reach the same peak blood concentration in the fasted state as following a high fat meal [6]: more than doubled | bioavailability vs body weight [3]: increased with a reduced body weight | interaction with coadministered contraceptives [4]: decreases blood concentrations of both ethinyl estradiol and norethindrone | Adverse event: Cheilitis (patients [7]): 472 (90.2) number (%) of patients | Adverse event: Conjunctivitis (patients [7]): 201 (38.4) number (%) of patients | Adverse event: Desquamation central face/Desquamation (patients [7]): 187 (35.8) number (%) of patients | Adverse event: Dry Skin (patients [7]): 172 (32.9) number (%) of patients | Adverse event: Dry nose (patients [7]): 136 (26.0) number (%) of patients | Adverse event: Epistaxis (patients [7]): 121 (23.1) number (%) of patients | Adverse event: Fingertip peeling/Desquamation (patients [7]): 63 (12.0) number (%) of patients | Adverse event: Headache (patients [7]): 44 (8.4) number (%) of patients | Adverse event: Irritation of eyes (patients [7]): 85 (16.3) number (%) of patients | Adverse event: Joint pain/Arthralgia (patients [7]): 60 (11.5) number (%) of patients | Adverse event: Pruritus (patients [7]): 127 (24.3) number (%) of patients | Adverse event: Rash-dermatitis/Rash (patients [7]): 82 (15.7) number (%) of patients | Adverse event: Red Scaly face/Desquamation (patients [7]): 54 (10.3) number (%) of patients | Adverse event: Skin fragility/Skin disorder (patients [7]): 164 (31.4) number (%) of patients

CCOC(=O)/C=C(C)/C=C/C=C(C)/C=C/c1c(C)cc(OC)c(C)c1C [etretinate]
bioavailability vs body weight [3]: increased with a reduced body weight
